Tests used:
HEK293 = test: MTT cell viability assay, HEK293; assay type: cell-based; settings: Homo sapiens; Table S1, HEK293; read-out: IC50 (mean ± SD)
Text: (§1) Blokhin National Medical Research Center of Oncology (the Ministry of Health of the Russian Federation, Moscow).

MCF-7 = test: MTT cell viability assay, MCF-7; assay type: cell-based, human; settings: Homo sapiens, MCF7; Table S1, MCF-7; read-out: IC50 (mean ± SD)
Text: as §1

RD TE32 = test: MTT cell viability assay, RD TE32; assay type: cell-based, human; settings: Homo sapiens; Table S1, RD TE32; read-out: IC50 (mean ± SD)
Text: as §1

HCT116 = test: MTT cell viability assay, HCT116; assay type: cell-based, human; settings: Homo sapiens, HCT-116; Table S1, HCT116; read-out: IC50 (mean ± SD)
Text: as §1

HBL-100/Dox = test: MTT cell viability assay, HBL-100/Dox; assay type: cell-based, human; settings: Homo sapiens, HBL-100; read-out: IC50 (mean ± SD)
Description: (§2) The cells were cultured in a humidified CO2 incubator (model 460-CE; Thermo Fisher Scientific, Waltham, MA, USA) at +37 °C and 5% CO2.
(§3) The percentage of the viable cells was calculated according to the following equation: cell viability (%) = 100 × (mean absorbance in the treatment group/mean absorbance in the control group). The results were expressed pictorially using Prism 6.0 (GraphPad Software, Boston, MA, USA).

A549 = test: MTT cell viability assay, A549; assay type: cell-based, human; settings: Homo sapiens; Table S1, A549; read-out: IC50 (mean ± SD)
Text: as §1

HBL-100 = test: MTT cell viability assay, HBL-100; assay type: cell-based, human; settings: Homo sapiens; Table S1, HBL-100; read-out: IC50 (mean ± SD)
Description: as §2, §3

HEpG2 = test: MTT cell viability assay, HEpG2; assay type: cell-based, human; settings: Homo sapiens; Table S1, HEpG2; read-out: IC50 (mean ± SD)
Text: as §1

PC-3 = test: MTT cell viability assay, PC-3; assay type: cell-based, human; settings: Homo sapiens; Table S1, PC-3; read-out: IC50 (mean ± SD)
Text: as §1

MS = test: MTT cell viability assay, MS; assay type: cell-based, human; settings: Homo sapiens; Table S1, MS; read-out: IC50 (mean ± SD);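 further: MS is a melanocyte cell line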
Text: as §1

Compound | IC50 (HEK293) [µM] | IC50 (MCF-7) [µM] | IC50 (RD TE32) [µM] | melting point [°C] | IC50 (HCT116) [µM] | IC50 (HBL-100/Dox) [µM] | IC50 (A549) [µM] | IC50 (HBL-100) [µM] | IC50 (HEpG2) [µM] | IC50 (PC-3) [µM] | IC50 (MS) [µM]
COC(=O)[C@]12CCC(C(C)C)C1C1CCC3[C@@](C)(CCC#N)C(C(C)=O)CC[C@@]3(C)[C@]1(C)CC2 (some centres unmarked) [compound 21, 2-Cyano-4-oxo-3,4-seco-3,23-dinorlupan-28-oic acid methyl ester] | > 100 | 97.5 ± 4.21 | > 100 | 177.2 | > 100 | > 200 | > 100 | > 100 | > 100 | > 100 | > 100
CC(C)C1CC[C@]2(CO)CC[C@]3(C)C(CCC4[C@@]5(C)C[C@@H](C#N)C[C@H](O)C5CC[C@]43C)C12 (stereo partly drawn) [compound 18, 2-Cyano-4β,28-dihydroxy-3,4-seco-3,23-dinor-2,24-cyclolupane] | > 100 | > 100 | > 200 | 205.7 | > 200 | > 200 | > 100 | > 100 | > 100 | > 100 | > 100
CC1=C(C#N)C[C@@]2(C)C1CC[C@]1(C)C2CCC2C3C(C(C)C)CC[C@]3(CO)CC[C@]21C (some centres unmarked) [compound 22, 2-Cyano-28-hydroxy-3,4-seco-3,23-dinor-2,4-cyclolup-2(4)-ene] | > 100 | 89.3 ± 3.01 | 84.7 ± 3.68 | 184.2 | 74.2 ± 2.56 | > 100 | > 200 | > 100 | > 100 | 36.5 ± 1.31 | > 100
CC(C)C1CC[C@]2(CO)CC[C@]3(C)C(CCC4[C@@]5(C)C[C@@H](C#N)CC(=O)C5CC[C@]43C)C12 (some centres unmarked) [compound 16, 2-Cyano-28-hydroxy-4-oxo-3,4-seco-3,23-dinor-2,24-cyclolupane] | > 100 | > 100 | > 100 | 166.6 | > 200 | > 200 | > 100 | > 100 | > 100 | > 100 | > 100
COC(=O)[C@]12CCC(C(C)C)C1C1CCC3[C@@]4(C)C[C@@H](C#N)CC(=O)C4CC[C@@]3(C)[C@]1(C)CC2 (some centres unmarked) [compound 17, 2-Cyano-4-oxo-3,4-seco-3,23-dinor-2,24-cyclolup-28-oic acid methyl ester] | > 100 | > 100 | > 100 | 220.8 | > 100 | > 200 | > 100 | > 200 | > 100 | > 100 | > 100
C=C(CBr)C1CC[C@]2(C)C(CCC3C4C(C(C)C)CC[C@]4(COC(=O)c4ccccc4)CC[C@]32C)[C@@]1(C)CCC#N (some centres unmarked) [compound 6, 28-Benzoyloxy-24-bromo-2-cyano-3,4-seco-3-norlup-4(23)-ene] | > 200 | > 200 | > 200 | 87.9 | > 200 | > 200 | > 100 | > 100 | > 100 | > 100 | > 100
C=C1C2CC[C@]3(C)C(CCC4C5C(C(C)C)CC[C@]5(CO)CC[C@]43C)[C@@]2(C)C[C@@H](C#N)[C@@H]1O (stereo partly drawn) [compound 9, 2-Cyano-24β,28-dihydroxy-3,4-seco-3-nor-2,24-cyclolup-4(23)-ene] | > 100 | > 200 | > 100 | 170.1 | > 100 | > 100 | > 100 | > 200 | > 100 | > 100 | > 100
CC(C)C1CC[C@]2(COC(=O)c3ccccc3)CC[C@]3(C)C(CCC4[C@@](C)(CCC#N)C(C(=O)CBr)CC[C@]43C)C12 (some centres unmarked) [compound 28, 28-Benzoyloxy-24-bromo-2-cyano-4-oxo-3,4-seco-3,23-dinorlupane] | > 100 | 86.1 ± 10.1 | > 100 | 91.6 | > 100 | > 200 | > 100 | > 100 | > 100 | > 100 | > 100
C=C(CBr)C1CC[C@]2(C)C(CCC3C4C(C(C)C)CC[C@]4(C(=O)OC)CC[C@]32C)[C@@]1(C)CCC#N (some centres unmarked) [compound 7, 24-Bromo-2-cyano-3,4-seco-3-norlup-4(23)-en-28-oic acid methyl ester] | > 100 | > 100 | > 200 | 72.7 | > 200 | > 200 | > 100 | > 200 | > 100 | > 100 | > 100
C=C1C=C(C#N)C[C@@]2(C)C1CC[C@]1(C)C2CCC2C3C(C(C)C)CC[C@]3(C(=O)OC)CC[C@]21C (some centres unmarked) [compound 10, 2-Cyano-3,4-seco-3-nor-2,24-cyclolup-2(24),4(23)-dien-28-oic acid methyl ester] | > 200 | > 100 | > 100 | 76.6 | > 200 | > 200 | > 100 | > 100 | > 100 | > 100 | > 100
C=C1C2CC[C@]3(C)C(CCC4C5C(C(C)C)CC[C@]5(C(=O)OC)CC[C@]43C)[C@@]2(C)C[C@@H](C#N)[C@@H]1O (stereo partly drawn) [compound 11, 2-Cyano-24β-hydroxy-3,4-seco-3-nor-2,24-cyclolup-4(23)-en-28-oic acid methyl ester] | > 200 | > 100 | > 200 | 133.9 | > 200 | > 200 | > 100 | 73.3 ± 1.51 | > 100 | > 100 | > 100
COC(=O)[C@]12CCC(C(C)C)C1C1CCC3[C@@]4(C)CC(C#N)=C(C)C4CC[C@@]3(C)[C@]1(C)CC2 (some centres unmarked) [compound 23, 2-Cyano-3,4-seco-3,23-dinor-2,4-cyclolup-2(4)-en-28-oic acid methyl ester] | > 100 | 70.2 ± 3.09 | > 100 | 168.5 | > 100 | > 100 | > 200 | > 100 | > 200 | > 200 | > 100
COC(=O)[C@]12CCC(C(C)C)C1C1CCC3[C@@]4(C)CC(C#N)=CC(=O)C4CC[C@@]3(C)[C@]1(C)CC2 (some centres unmarked) [compound 15, 2-Cyano-4-oxo-3,4-seco-3,23-dinor-2,24-cyclolup-2(24)-en-28-oic acid methyl ester] | > 100 | > 100 | > 100 | 69.7 | > 100 | > 100 | > 100 | > 100 | > 100 | > 100 | > 100
C=C1C=C(C#N)C[C@@]2(C)C1CC[C@]1(C)C2CCC2C3C(C(C)C)CC[C@]3(CO)CC[C@]21C (some centres unmarked) [compound 8, 2-Cyano-28-hydroxy-3,4-seco-3-nor-2,24-cyclolup-2(24),4(23)-diene] | > 100 | > 100 | > 200 | 196.1 | > 200 | > 200 | > 100 | > 100 | > 100 | > 100 | > 100
C=C(C=O)C1CC[C@]2(C)C(CCC3C4C(C(C)C)CC[C@]4(COC(=O)c4ccccc4)CC[C@]32C)[C@@]1(C)CCC#N (some centres unmarked) [compound 4, 28-Benzoyloxy-2-cyano-3,4-seco-3-norlup-4(23)-en-24-al] | > 100 | > 200 | > 100 | 176.5 | > 200 | > 100 | > 100 | > 100 | > 100 | > 100 | > 100
CC(C)C1CC[C@]2(COC(=O)c3ccccc3)CC[C@]3(C)C(CCC4[C@@](C)(CCC#N)C(C(=O)C(Br)Br)CC[C@]43C)C12 (some centres unmarked) [compound 29, 28-Benzoyloxy-2-cyano-24,24-dibromo-4-oxo-3,4-seco-3,23-dinorlupane] | > 100 | 49 ± 5.33 | 73.2 ± 5.24 | 107.7 | > 200 | > 200 | > 100 | > 100 | > 100 | > 100 | > 100
